The source of these data is publication PMC6471559, “Design and Synthesis of a New Soluble Natural β-Carboline Derivative for Preclinical Study by Intravenous Injection” (International Journal of Molecular Sciences, 2019).

As a reminder, the IC50 is the point on the concentration scale where inhibition reaches its midpoint. A word on the thermodynamic solubility: it is the concentration in solution at equilibrium with solid.

Molecules are shown by their SMILES. Entries after “also recorded” stand apart in the source; their conditions may differ. Where two headings read alike, the source gives them in different places.

The nature of series [1]: Kinetic solubility by HPLC, Multiscreen Solubility Filter plate. It counts as physicochemical. The source says:
From those data, we chose an isopentyl substituent on position 7, which is suitable to decrease neurotoxicity of the targeted compound. We selected a propyl group on position 9 as a short alkyl substituent, seems to be suitable to maintain good antiproliferative properties. […] This high activity can result in low administered doses, thus counter-balancing the low LD50 associated with this N^2 substitution. […] It has been shown that pyridine scaffold in lead compounds can result in higher solubility because of the presence of the heteroatom. Finally, the pyridyl group offers good potential for salification and/or cocrystallization which can also improve pharmacological properties.
The kinetic solubility of compounds 1a and 1b was determined by HPLC method, using a Multiscreen Solubility Filter 96-well plate (Merck®) using a test adapted from. First, the calibration curve was performed from five solutions (3.13 µM 12.5 µM, 50 µM, 200 µM and 500 µM, with a final DMSO concentration of 5%). The kinetic solubility was measured in triplicate at physiological pH in phosphate buffer (0.05 M Na2HPO4; 0.02 M NaCl adjusted at physiological pH using solution NaH2PO4 0.05 M; NaCl 0.02 M) and in acidic condition (0.2 M HCl, 0.03 M NaCl adjusted at pH = 1.1 using HCl 37%). […]

Another series has as its system Hs683 human glioma cells. The series is described as follows: MTT antiproliferative assay, 72 h. It counts as cell-based. As for the experimental part: (§1) Antiproliferative activity of compound 2 was evaluated using a colorimetric MTT assay for 72 h. […] Compound 2 activity was studied on different cancer cell lines: two glioma cell lines (T98G, Hs683), one breast cancer cell line (MDA-MB-231), one lung cancer cell line (A549) and one pancreatic cell line (PANC-1). A mean submicromolar antiproliferative activity was observed (Table 2). […] Cytotoxicity of compound 2 against normal cells (epithelial breast cells MCF-10a) vs. cancer cells (MDA-MB-231) was also determined. […] MDA-MB-231 human breast cancer cells, T98G human brain cancer cells and PANC-1 human epithelioid carcinoma were maintained in culture in 75-cm^2 polystyrene flasks (Corning®, […], Luxembourg) with respectively 15 mL of Dulbecco's modified Eagle's medium (#341966-029 DMEM 1X; ThermoFisher, Gibco®, Geel, Belgium) containing 4.5g/L of glucose, 10% of fetal calf serum (#10270 ThermoFisher, Gibco®, Geel, Belgium) and supplemented with penicillin-streptomycin 10,000 U/mL (#15140 ThermoFisher, Gibco®, Geel, Belgium) incubated under an atmosphere containing 5% CO2. HS683 human glioma and A549 human lung carcinoma were maintained in culture in 75-cm^2 polystyrene flasks (Corning®) with respectively 15 mL of Roswell Park Memorial Institute medium (Gibco® RPMI 1640, Thermofisher, Geel, Belgium) containing 10% of fetal calf serum (#10270 ThermoFisher, Gibco®, Geel, Belgium) and supplemented with penicillin-streptomycin 10,000 U/mL (#15140 ThermoFisher, Gibco®, Geel, Belgium), glutamine (200 mM) and HEPES (25 mM) incubated under an atmosphere containing 5% CO2. MCF-10-a human non-tumorigenic breast epithelial cells were maintained in 75-cm^2 polystyrene flasks (Corning®, […], Luxembourg) with 15 mL of Gibco®, Geel, Belgium) F-12 Nutrient Mixture (Ham) containing 5% of horse serum (Invitrogen®) supplemented with 10 μg/mL of human Insulin (Sigma®, Schnelldorf, Germany), 0.5 μ/mL of Hydrocortisone (Sigma®, Schnelldorf, Germany) and 20 ng/mL of Epidermal Growth Factor (Peprotech®, London, UK) incubated under an atmosphere containing 5% CO2. The cell lines were obtained from the American Type Culture Collection (ATCC, Manassas, VA). Antiproliferative activity and overall cytotoxicity of compound 2 on cancer and normal cells lines (breast cancer cell line MDA-MB231 and non-tumorigenic breast epithelial cells (MCF-10a) were determined in vitro using colorimetric MTT (Sigma-Aldrich (Schnelldorf, Germany)) solution (0.5 mg/mL in PBS) assay according to a protocol adapted from. Cells were seeded in 96-well culture plate (1200 cells/well 1 day before incubation and were treated for 72 h in culture medium at 37 °C with different concentrations of compound 2 ranging from 1 nM to 10 μM, with semilog concentration increasing of the compound. The yellow MTT product was converted to a purple formazan derivative through mitochondrial enzymatic reduction. At the end of the incubation of 4 h, the plate was centrifugated at 1200 rpm for 5 min and the MTT solution was decanted. Then, blue formazan was solubilized with DMSO and absorbance at 570 nm, which is directly proportional to the number of metabolic active cells, is determined. Experiments were carried out in sextuplicates.
Background: Formazan colour is commonly taken as a measure of viable cells.

Series [2] has as its system MDA-MB-231 human breast cancer cells. The series is described as follows: MTT antiproliferative assay, 72 h. It counts as cell-based. As for the experimental part: as §1
In series [3] the test system is T98G human brain cancer cells. The series is described as follows: MTT antiproliferative assay, 72 h. It counts as cell-based. As for the experimental part:
as §1

The subject of series [4] is A549 human lung carcinoma cells. The series is described as follows: MTT antiproliferative assay, 72 h. It counts as cell-based. Here is the method:
as §1

Series [5] has as its system PANC-1 human epithelioid carcinoma cells. Kind of series: MTT antiproliferative assay, 72 h. It counts as cell-based. As for the experimental part:
as §1

Series [6] can be described thus: Thermodynamic solubility by UV absorbance at 330 nm after 72 h stirring at 37 °C. It counts as physicochemical. Conditions: thermodynamic from solid. Here is the method: (§2) Compound 2 solubility and stability measurements were performed at 37 °C at pH 1.1 (0.02 M NaCl, pH 1.1 obtained by HCl addition) to mimic gastric conditions, at pH 7.4 (0.050 M Na2HPO4/NaH2PO4 and 0.02 M NaCl, pH 7.4) and simulated injection vehicle (0.9% NaCl and 0.1% Polysorbate 80). Stability measurements were performed from 0 h to 72 h after complete solubilization. […] At pH 1.1 as well as in the simulated injection vehicle, a higher solubility is observed in comparison with the solubility at physiological pH. Solubility is 1.06 ± 0.08 mg/mL at physiological pH, 1.62 ± 0.13 mg/mL at acidic pH, as well as 1.87 ± 0.07 mg/mL in a simulated vehicle injection (Table 1).
Solubility of compound 2 was evaluated at 37 °C, at pH 1.1 (0.02 M NaCl, pH 1.1 obtained by HCl addition), at physiological pH (buffer 0.050 M Na2HPO4/NaH2PO4 and 0.02 M NaCl, pH 7.4) as well as in a simulated injection vehicle (0.9% NaCl and 0.1% Polysorbate 80 pH 7.4). To this aim, an excess of compound 2 was placed in the […] media in a 24 well plate and stirred (1200 rpm) 72 h at 37 °C after hermetic sealing. After 72 h of stirring, the solutions were filtered (0.2 µm) and diluted 100 times. The solubility was determined by UV absorbance at 330 nm using a calibration curve (five points in a range of concentration between 0.005 and 0.1 mg/mL). All measurements were made in triplicate and adequate dissolutions were performed to stay in Beer-Lambert conditions.

Series [7] has as its system MCF-10a human non-tumorigenic breast epithelial cells. Kind of series: MTT cytotoxicity on normal cells vs. cancer cells. The note with it: in the IC50 concentration range. It counts as cell-based. As for the experimental part: (§3) Antiproliferative activity of compound 2 was evaluated using a colorimetric MTT assay for 72 h. […] Compound 2 activity was studied on different cancer cell lines: two glioma cell lines (T98G, Hs683), one breast cancer cell line (MDA-MB-231), one lung cancer cell line (A549) and one pancreatic cell line (PANC-1). A mean submicromolar antiproliferative activity was observed (Table 2). […] Cytotoxicity of compound 2 against normal cells (epithelial breast cells MCF-10a) vs. cancer cells (MDA-MB-231) was also determined. […] Antiproliferative activity and overall cytotoxicity of compound 2 on cancer and normal cells lines (breast cancer cell line MDA-MB231 and non-tumorigenic breast epithelial cells (MCF-10a) were determined in vitro using colorimetric MTT (Sigma-Aldrich (Schnelldorf, Germany)) solution (0.5 mg/mL in PBS) assay according to a protocol adapted from. Cells were seeded in 96-well culture plate (1200 cells/well 1 day before incubation and were treated for 72 h in culture medium at 37 °C with different concentrations of compound 2 ranging from 1 nM to 10 μM, with semilog concentration increasing of the compound. […] Then, blue formazan was solubilized with DMSO and absorbance at 570 nm, which is directly proportional to the number of metabolic active cells, is determined. […]

For series [8], the system named is A549, MDA-MB-231, PANC-1, T98G and Hs683 cell lines. Kind of series: MTT antiproliferative assay, 72 h, summary over five cancer cell lines. Conditions: Homo sapiens, A549, MDA-MB-231, PANC-1, T98G and Hs683, MTT, read-out: IC50 range over five cancer cell lines. It counts as cell-based. Here is the method:
as §3

The nature of series [9]: Stability in three media by UV spectra from 0 h to 72 h at 37 °C. It counts as physicochemical. Conditions: pH 1.1, pH 7.4 and simulated injection vehicle (0.9% NaCl, 0.1% Polysorbate 80). As for the experimental part: as §2
We have evaluated the stability of compound 2 in three different conditions (at pH 1.1, at pH 7.4 and in a simulated injection vehicle) for three days and at 37 °C because it is compatible with physiological temperature and because a higher temperature can result in a better solubilization. We observe that the compound remains stable for at least three days in the three different solutions tested, which allowed determination of its thermodynamic solubility. […]

As to `Cc1nccc2c1[nH]c1cc(OCCC(C)C)ccc12` [1a, 1-methyl-7-(3-methylbutoxy)-9H-pyrido[3,4-b]indole], the “Kinetic solubility at low pH” value in series [1] (pH 1.1) was “good solubility at low pH”.

Consider `CCCn1c2cc(OCCC(C)C)ccc2c2ccnc(C)c21` [1b, 1-methyl-7-(3-methylbutoxy)-9-propyl-9H-pyrido[3,4-b]indole], for which, in series [1] (acidic condition pH 1.1, 5% DMSO, preliminary data, values only in Figure 2B), the “Kinetic solubility at low pH” value was “good solubility at low pH”.

With `CCCn1c2cc(OCCC(C)C)ccc2c2cc[n+](Cc3ccccn3)c(C)c21.[Br-]` [compound 2, 1-methyl-7-(3-methylbutoxy)-9-propyl-2-[(pyridin-2-yl)methyl]-9H-pyrido[3,4-b]indol-2-ium bromide], the IC50 is 305 nM in the series on Hs683 human glioma cells; under 500 nM in the series with Hs683 human glioma cells (Homo sapiens, Hs 683, 72 h); 449 nM in series [2] (Homo sapiens, MDA-MB-231, MTT, 72 h); 2190 nM in series [3] (Homo sapiens, MTT, 72 h); 261 nM in series [4] (Homo sapiens, A549, MTT, 72 h); 350 nM in series [5] (Homo sapiens, PANC-1, MTT, 72 h). In series [8], the IC50 was in the range of 200 to 2000 nM. For the same compound, the “Cytostatic at IC50” value in series [2] (MDA-MB-231, metabolic activity at IC50 compared with T = 0 h) is given as “cytostatic behavior; also recorded: cytostatic effect”; in series [3] (metabolic activity at IC50 compared with T = 0 h), “No”; in series [4] (A549, metabolic activity at IC50 compared with T = 0 h), “cytostatic behavior; also recorded: cytostatic effect”; in [5] (PANC-1, metabolic activity at IC50 compared with T = 0 h), “No”. Moreover, the solubility (thermodynamic) at 72 h is 1620 ± 130 µg/mL in series [6] (0.02 M NaCl solution acidified with HCl, pH 1.1, simulated gastric fluid, pH 1.1 (0.02 M NaCl, HCl), read-out: Mean thermodynamic solubility at 37 °C); 1460 ± 10 µg/mL in [6] (0.02 M NaCl solution acidified with HCl, pH 1.1, simulated gastric fluid, pH 1.1 (0.02 M NaCl, HCl), read-out: Thermodynamic solubility at 37 °C replicate 1); 1630 ± 20 µg/mL in [6] (0.02 M NaCl solution acidified with HCl, pH 1.1, simulated gastric fluid, pH 1.1 (0.02 M NaCl, HCl), read-out: Thermodynamic solubility at 37 °C replicate 2); 1770 ± 10 µg/mL in series [6] (0.02 M NaCl solution acidified with HCl, pH 1.1, simulated gastric fluid, pH 1.1 (0.02 M NaCl, HCl), read-out: Thermodynamic solubility at 37 °C replicate 3); 1060 ± 80 µg/mL in series [6] (phosphate buffer, pH 7.4, aqueous buffer, pH 7.4 phosphate buffer, read-out: Mean thermodynamic solubility at 37 °C); 980 ± 10 µg/mL in [6] (phosphate buffer, pH 7.4, aqueous buffer, pH 7.4 phosphate buffer, read-out: Thermodynamic solubility at 37 °C replicate 1). The thermodynamic solubility at 72 h in [6] (phosphate buffer, pH 7.4, aqueous buffer, pH 7.4 phosphate buffer, read-out: Thermodynamic solubility at 37 °C replicate 2) was 990 ± 10 µg/mL; in series [6] (phosphate buffer, pH 7.4, aqueous buffer, pH 7.4 phosphate buffer, read-out: Thermodynamic solubility at 37 °C replicate 3), 1150 ± 10 µg/mL; in series [6] (simulated injection vehicle, pH 7.4, aqueous with cosolvent or surfactant or cyclodextrin, injection vehicle (0.9% NaCl and 0.1% Polysorbate 80), read-out: Mean thermodynamic solubility at 37 °C), 1870 ± 70 µg/mL; in [6] (simulated injection vehicle, pH 7.4, aqueous with cosolvent or surfactant or cyclodextrin, injection vehicle (0.9% NaCl and 0.1% Polysorbate 80), read-out: Thermodynamic solubility at 37 °C replicate 1) it was 1950 ± 10 µg/mL; in series [6] (simulated injection vehicle, pH 7.4, aqueous with cosolvent or surfactant or cyclodextrin, injection vehicle (0.9% NaCl and 0.1% Polysorbate 80), read-out: Thermodynamic solubility at 37 °C replicate 2) it was 1900 ± 40 µg/mL; in [6] (simulated injection vehicle, pH 7.4, aqueous with cosolvent or surfactant or cyclodextrin, injection vehicle (0.9% NaCl and 0.1% Polysorbate 80), read-out: Thermodynamic solubility at 37 °C replicate 3), 1770 ± 10 µg/mL. Also, the results for the “Activity on normal cells (MCF-10a) vs. cancer cells (MDA-MB-231)” value in series [7] and in series [7] (listed as 1-methyl-7-(3-methylbutoxy)-9-propyl-2-[(pyridin-2-yl)methyl]-9H-pyrido[3,4-b]in) were “more active on a cancer cell line than on normal cells” and “more active on cancer cells (MDA-MB-231) than on normal cells (MCF-10a)”, respectively. The “Time for which the compound is stable (no modification of UV spectra)” value in series [9] is given as “at least 72 h”.
